Entries after “also recorded” stand apart in the source; their conditions may differ.
Legend:
NTPDase [1] = biological target: T1, NTPDase (Bos taurus, UniProt O18956); assay: Resistance to hydrolysis by NTPDase (malachite green phosphate release); assay type: biochemical, bovine; parameters: To reduce potential artifacts resulting from the solubilisation of NTPDase by detergents, a particulate fraction (prepared as described above) was used; from tissue; host or cells: bovine spleen particulate fraction; settings: 100 μM analog, 37° C., 7 min, 1.9 μg protein
T1 sequence (O18956 1-513): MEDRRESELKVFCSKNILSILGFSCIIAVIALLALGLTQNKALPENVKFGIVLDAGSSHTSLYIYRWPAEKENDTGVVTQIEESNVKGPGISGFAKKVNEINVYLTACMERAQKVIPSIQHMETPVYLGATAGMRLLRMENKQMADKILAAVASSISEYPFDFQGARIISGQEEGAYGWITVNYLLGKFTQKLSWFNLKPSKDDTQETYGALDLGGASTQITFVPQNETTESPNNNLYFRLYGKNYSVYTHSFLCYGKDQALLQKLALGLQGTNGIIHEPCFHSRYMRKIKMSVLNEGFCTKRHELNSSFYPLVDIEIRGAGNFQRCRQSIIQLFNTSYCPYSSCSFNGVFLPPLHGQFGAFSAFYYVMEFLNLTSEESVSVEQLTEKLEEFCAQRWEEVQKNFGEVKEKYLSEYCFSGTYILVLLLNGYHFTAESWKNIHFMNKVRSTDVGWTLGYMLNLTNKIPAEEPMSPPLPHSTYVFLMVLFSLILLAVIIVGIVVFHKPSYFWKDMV
Experimental: Isolation of particulate fractions. Experiments were carried out with a particulate fraction obtained from bovine spleen according to the method of Sévigny et al. (37). Briefly, bovine spleens were cut in small pieces and homogenized (15-20%) with a Polytron in Tris-saline buffer supplemented with SBTI and PMSF as protease inhibitors. After filtration with cheesecloth and centrifugation at 600 g the supernatant is centrifuged at 22,000 g for 90 min, and the resulting pellet is suspended in bicarbonate buffer and loaded on a sucrose cushion (40%) and centrifuged for two hours at 100,000 g. The fraction floating on the cushion is harvested in five volumes of bicarbonate buffer. The pellet is suspended in Tris buffer/glycerol 7.5% and kept at −20° C.
(§1) NTPDase assays. Enzyme activity was routinely measured by the release of inorganic phosphorus with the malachite green colorimetric assay (61). Resistance to hydrolysis was measured at 37° C. in 1 ml of the following incubation medium: 8 mM CaCl2, 5 mM tetramisole, 50 mM Tris base, 50 mM imidazole, buffered at pH 7.6, and 100 μM of either ATP or its analogs. […] In both cases the reaction was started by the addition of 1.9 μg of the enzyme preparation and stopped after 7 min with 250 μL of the malachite green reagent. […] Reactions were performed in the same incubation buffer, as previously described and were started by the addition of non-saturating ATP concentrations. Protein concentration was determined with the Bradford microplate assay using bovine serum albumin as a standard of reference (62).
To reduce potential artifacts resulting from the solubilisation of NTPDase by detergents, a particulate fraction (prepared as described above) was used. […] Also, possible alkaline phosphatase activity was inhibited by tetramisole added to the assays.

NTPDase [2] = biological target: T1, NTPDase; assay: NTPDase inhibition, ATP as substrate (Dixon plots); assay type: biochemical, bovine
Experimental: as §1, with “Isolation of particulate fractions. […] Briefly, bovine spleens were cut in small pieces and homogenized (15-20%) with a Polytron in Tris-saline buffer supplemented with SBTI and PMSF as protease inhibitors. After filtration with cheesecloth and centrifugation at 600 g the supernatant is centrifuged at 22,000 g for 90 min, and the resulting pellet is suspended in bicarbonate buffer and loaded on a sucrose cushion (40%) and centrifuged for two hours at 100,000 g. The fraction floating on the cushion is harvested in five volumes of bicarbonate buffer. […] NTPDase” for “NTPDase”, “(62). […]” for “(62).”

P2Y1 receptor = settings: cited from earlier work
rat astrocytes = settings: cited from earlier work
P2X-purinoceptor = assay: P2X-receptor assay, endothelium-denuded mesenteric bed; parameters: species or system guinea pig; settings: for P2X-R effect: variation of perfusion pressure: bolus 0.1-1000 pmol, denuded mesenteric bed precontracted with noradrenaline
Experimental: (§2) Surgical Procedures. Dunkin-Hartley guinea pigs (300-350 g) of either sex were sacrificed by cerival dislocation according to the Canadian Council on Aminal Care. The guinea pig mesentery was prepared as described by Berthiaume et al (63). […] To isolate the mesenteric bed from the intestine, the mesentery was perfused (2 ml/min, for 5 min) via the mesenteric artery with a Krebs solution containing heparin (100 U/ml). The mesentery was then separated by cutting close to the intestine. A resting period of 60 min was then allowed during which the guinea pig mesenteric bed was perfused (2 ml/min) with a warmed (37° C.) and gassed Krebs solution (95% O2 and 5% CO2) containing indomethacin (5 μM), as described earlier. In all the assays, perfusion pressure was increased to obtain a flow rate of 6 ml min^−1. Response of mesenteric bed, precontracted with noradrenaline (200 μM) in 0.9% saline solution, to the different drugs, was measured with a pressure transducer (Statham, model P-23AC) and recorded on a Grass physiograph (model 79D).
P2X-receptor assays. Guinea pig mesenteric bed was denuded from its endothelium layer by using 20 mM of CHAPS in PBS (63). Briefly, the CHAPS solution was infused for 45 sec, followed by a resting period of 30 min. Finally a second 45 sec infusion of 20 mM CHAPS was carried out. Blood vessels were then precontracted as earlier described. The efficiency of the endothelium removal technique was assessed by an intra-arterial bolus injection of 100 pmol of NK-1 in PBS. Reactivity of the media layer was confirmed by bolus injection of 3 nmol of NaNP (sodium nitroprussiate) in PBS. […] Variation of perfusion pressure were measured. Between each injection of 8-BuS-ATP a resting period was allowed to allow the return of pressure to baseline (i.e. precontracted pressure).

P2Y-purinoceptor = assay: P2Y-receptor assay, intact mesenteric bed, ATP-induced vasodilation; parameters: species or system guinea pig; settings: 7 μM infusion, ATP 0.1-10000 pmol
Experimental: as §2
P2Y-receptor assays. Intact mesenteric bed vessels were precontracted with noradrenaline (200 μM). […] A resting period between each ATP injection was allowed to return to baseline, as described above. Blood vessel reactivity was assessed by a bolus injection of 3 nmol of NaNP. Response of the endothelium layer was confirmed by injection of NK-1 (100 pmol).

With `Nc1ncnc2c1nc(SC1CCCCCC1)n2C1OC(COP(=O)(O)OP(=O)(O)OP(=O)(O)O)C(O)C1O` (centres unmarked) [6a, 8-(Thiocycloheptyl)-adenosine 5′-triphosphate] the “hydrolysis by NTPDase / resistance to hydrolysis” value (NTPDase [1]) was “more resistant to hydrolysis; also recorded: resistant to hydrolysis”, the “potency / affinity as NTPDase inhibitor, in words” value (NTPDase [2]) was “good inhibitors” and the “type of NTPDase inhibition” value (NTPDase [2]; Lineweaver-Burk / Dixon representation) was “mixed type inhibitors; also recorded: mixed types of inhibition”.
In the case of `CCSc1nc2c(N)ncnc2n1[C@@H]1O[C@H](COP(=O)(O)OP(=O)(O)OP(=O)(O)O)[C@@H](O)[C@H]1O` [6c, 8-(Thioethyl)-adenosine 5′-triphosphate], the “hydrolysis by NTPDase / resistance to hydrolysis” value (NTPDase [1]) is reported as “a level of hydrolysis”.
For `CCCCSc1nc2c(N)ncnc2n1C1OC(COP(=O)(O)OP(=O)(O)OP(=O)(O)O)C(O)C1O` (centres unmarked) [6e, 8-BuS-ATP], the “agonism at P2Y1 receptor” value (P2Y1 receptor) is given as “poor agonist”, the “effect on [Ca2+]i level” value (rat astrocytes) is given as “no effect” and the “P2X-R effect: variation of perfusion pressure” value (P2X-purinoceptor) is given as “does not interact”. The “P2X-R effect: variation of perfusion pressure” value (P2X-purinoceptor; listed as 8-BuS-ATP) was “not able to initiate any P2X-R effect; also recorded: No variations of perfusion pressure”, the “effect on vasodilatory response to ATP (P2Y-R)” value (P2Y-purinoceptor) was “does not interact” and the “effect on vasodilatory response to ATP (P2Y-R)” value (P2Y-purinoceptor; listed as 8-BuS-ATP) was “unmodified; also recorded: No significant difference”.
In the case of `Nc1ncnc2c1nc(Br)n2[C@@H]1O[C@H](COP(=O)(O)OP(=O)(O)OP(=O)(O)O)[C@@H](O)[C@H]1O` [8-Br-ATP, reference compound], the “hydrolysis by NTPDase / resistance to hydrolysis” value (NTPDase [1]) is reported as “a level of hydrolysis”.
In the case of `CCCCNc1nc2c(N)ncnc2n1[C@@H]1O[C@H](COP(=O)(O)OP(=O)(O)OP(=O)(O)O)[C@@H](O)[C@H]1O` [compound 7, 8-BuNH-ATP], the “hydrolysis by NTPDase / resistance to hydrolysis” value (NTPDase [1]) is reported as “a level of hydrolysis”.
With `CCCCOc1nc2c(N)ncnc2n1[C@@H]1O[C@H](COP(=O)(O)OP(=O)(O)OP(=O)(O)O)[C@@H](O)[C@H]1O` [compound 8, 8-BuO-ATP] the “hydrolysis by NTPDase / resistance to hydrolysis” value (NTPDase [1]) was “a level of hydrolysis”.
For “[Star^9,Met(O2)^11]SP [NK-1, reference compound]”, the “vascular response (vasodilation) in denuded mesentery” value (P2X-purinoceptor; 100 pmol, vessels precontracted with 200 μM noradrenaline) was “significant response”.

Source: patent US6617439B1, “C8-substituted purine nucleotide analogs” (Bar-Ilan University, priority 2000, dated 2003)
